Tests used:
Conditions in all cases: 21 DAA
SINAR = assay: Example III: post-emergence foliar-applied weed control in cereal crops, greenhouse; format: in vivo, Sinapis arvensis L.
Procedure: (§1) Seeds of the desired test plant species were planted in Sun Gro MetroMix® 306 planting mixture, which typically has a pH of 6.0 to 6.8 and an organic matter content of about 30 percent, in plastic pots with a surface area of 103.2 square centimeters (cm^2). When required to ensure good germination and healthy plants, a fungicide treatment and/or other chemical or physical treatment was applied. The plants were grown for 7-36 days in a greenhouse with an approximate 14 hour photoperiod which was maintained at about 18° C. during the day and 17° C. during the night. Nutrients and water were added on a regular basis and supplemental lighting was provided with overhead metal halide 1000-Watt lamps as necessary. The plants were employed for testing when they reached the second or third true leaf stage.
(§2) Treatments consisted of the benzyl ester of 4-amino-3-chloro-5-fluoro-6-(4-chloro-2-fluoro-3-methoxy-phenyl)pyridine-2-carboxylic acid (Compound A), formulated as an SC (suspension concentrate), and a second cereal herbicide alone and in combination.
(§3) Measured aliquots of the benzyl ester of 4-amino-3-chloro-5-fluoro-6-(4-chloro-2-fluoro-3-methoxy-phenyl)pyridine-2-carboxylic acid (Compound A) were placed in 25 milliliter (mL) glass vials and diluted in a volume of 1.25% (v/v) Agri-dex crop oil concentrated to obtain stock solutions. Compound requirements are based upon a 12 mL application volume at a rate of 187 liters per hectare (L/ha). Spray solutions of the second cereal herbicide and experimental compound mixtures were prepared by adding the stock solutions to the appropriate amount of dilution solution to form 12 mL spray solution with active ingredients in two- and three-way combinations. Formulated compounds were applied to the plant material with an overhead Mandel track sprayer equipped with an 8002E nozzle calibrated to deliver 187 L/ha over an application area of 0.503 square meters (m^2) at a spray height of 18 inches (46 cm) above average plant canopy. Control plants were sprayed in the same manner with the solvent blank.
(§4) The treated plants and control plants were placed in a greenhouse as described above and watered by sub-irrigation to prevent wash-off of the test compounds. After 20-22 days, the condition of the test plants as compared with that of the control plants was determined visually and scored on a scale of 0 to 100 percent where 0 corresponds to no injury and 100 corresponds to complete kill.
(§5) Colby's equation was used to determine the herbicidal effects expected from the mixtures (Colby, S. R. 1967. Calculation of the synergistic and antagonistic response of herbicide combinations. Weeds 15:20-22.).

CIRAR = assay: as above; format: in vivo, Cirsium arvense (L.) Scop.
Procedure: as §1, §2, §3, §4, §5

ISCRU = assay: Example I: postemergence foliar-applied weed control, greenhouse; format: in vivo, Ischaemum rugosum Salisb. (saramollagrass)
Excerpt: Seeds or nutlets of the desired test plant species were planted in a soil matrix prepared by mixing a loam or sandy loam soil (e.g., 28.6 percent silt, 18.8 percent clay, and 52.6 percent sand, with a pH of about 5.8 and an organic matter content of about 1.8 percent) and calcareous grit in an 80 to 20 ratio. The soil matrix was contained in plastic pots with a volume of 1 quart and a surface area of 83.6 square centimeters (cm^2). When required to ensure good germination and healthy plants, a fungicide treatment and/or other chemical or physical treatment was applied. The plants were grown for 8-22 days in a greenhouse with an approximate 14 hr photoperiod which was maintained at about 29° C. during the day and 26° C. during the night. Nutrients (Peters Excel® 15-5-15 5-Ca 2-Mg and iron chelate) were applied in the irrigation solution as needed and water was added on a regular basis. Supplemental lighting was provided with overhead metal halide 1000-Watt lamps as necessary. The plants were employed for testing when they reached the first through fourth true leaf stage.
Treatments consisted of the acid or esters of 4-amino-3-chloro-5-fluoro-6-(4-chloro-2-fluoro-3-methoxy-phenyl)pyridine-2-carboxylic acid (Compound A), each formulated as an SC (suspension concentrate), and various herbicidal components alone and in combination. Forms of compound A were applied on an acid equivalent basis.
Other herbicidal components were applied on an active ingredient basis and included very long chain fatty acid (VLCFA) synthesis-inhibiting and fatty acid/lipid synthesis-inhibiting herbicides acetochlor (technical grade material), acetochlor+dichlormid formulated as Topnotch®, pretilachlor (technical grade material), butachlor formulated as Butachlor EC, fentrazamide formulated as Fentrazamide EC, thiobencarb formulated as Bolero® 8EC, cafenstrole formulated as Himeadow® WP or Lapost® Flowable, benfuresate formulated as Full Shot®, dimethenamid-P formulated as Outlook®, indanofan (technical grade material), flufenacet formulated as Define® DF, mefenacet (technical grade material), S-metolachlor formulated as Dual® II Magnum, pethoxamid formulated as Successor® 600, and pyroxasulfone (technical grade material).
Treatment requirements were calculated based upon the rates being tested, the concentration of active ingredient or acid equivalent in the formulation, and a 12 mL application volume at a rate of 187 L/ha.
For treatments comprised of formulated compounds, measured amounts of compounds were placed individually in 25 mL glass vials and diluted in a volume of 1.25% (v/v) Agri-Dex® crop oil concentrated to obtain 12× stock solutions. […]

SMILES: COc1c(Cl)ccc(-c2nc(C(=O)OCc3ccccc3)c(Cl)c(N)c2F)c1F [Compound A Benzyl Ester, benzyl ester of 4-amino-3-chloro-5-fluoro-6-(4-chloro-2-fluoro-3-methoxy-phenyl)pyridine-2-carboxylic acid]
- Visual Weed Control SINAR Obs (SINAR; 2.5 gai/ha): 70%
- Visual Weed Control SINAR Obs (SINAR; 5 gai/ha): 73%
- Visual Weed Control CIRAR Obs (CIRAR; 2.5 gai/ha): 48%
- Visual Weed Control CIRAR Obs (CIRAR; 5 gai/ha): 39%
- Visual Weed Control CIRAR Obs (CIRAR; 10 gai/ha): 60%
- Visual Weed Control Obs (ISCRU; 8 gae/ha): 20%
- Visual Weed Control Obs (ISCRU; 16 gae/ha): 0%

From patent US20130310256A1, “HERBICIDAL COMPOSITIONS COMPRISING 4-AMINO-3-CHLORO-5-FLUORO-6-(4-CHLORO-2-FLUORO-3-METHOXYPHENYL) PYRIDINE-2-CARBOXYLIC ACID OR A DERIVATIVE THEREOF AND VLCFA AND LIPID SYNTHESIS INHIBITING HERBICIDES” (DOW AGROSCIENCES LLC, priority 2008, published 2013)
